# Laboratory results as given in patent publication US20020037931A1, “Substituted nitrated catechols, their use in the treatment of some central and peripheral nervous system disorders and pharmaceutical compositions containing them” (priority 2000, published 2002).
# How the values were obtained:
# COMT [1] = test: COMT activity (methylation of adrenaline to metanephrine) in rat liver homogenates; format: biochemical; details: rat liver homogenate; test compound 3 μM; means±SEM, n=4-8
# COMT [2] = test: COMT activity (methylation of adrenaline to metanephrine) in rat brain homogenates; format: biochemical; details: rat brain homogenate; test compound 100 nM; means±SEM, n=4-8
# COMT [3] = target: T1, COMT (Homo sapiens, UniProt P21964); test: COMT activity in intact SK-N-SH cell monolayers; format: cell-based; details: SK-N-SH cells; test compound 100 nM; means±SEM, n=4-8
# T1 construct: COMT activity was evaluated in cell monolayers by the ability to methylate adrenaline; host or cells: SK-N-SH cells
# T1 sequence (P21964 1-271): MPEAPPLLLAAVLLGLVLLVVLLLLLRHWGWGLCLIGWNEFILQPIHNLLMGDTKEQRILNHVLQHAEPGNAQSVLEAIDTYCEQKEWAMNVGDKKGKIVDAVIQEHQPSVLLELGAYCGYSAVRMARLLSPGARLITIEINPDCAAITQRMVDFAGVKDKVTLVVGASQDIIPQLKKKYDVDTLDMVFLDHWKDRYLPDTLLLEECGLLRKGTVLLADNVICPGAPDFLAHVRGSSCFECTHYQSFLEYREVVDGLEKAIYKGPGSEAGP
# COMT [4] = test: Ex vivo liver COMT activity after administration by gastric tube; format: in vivo; details: rat liver homogenate
# COMT [5] = test: Ex vivo brain COMT activity after administration by gastric tube; format: in vivo, rat; details: for COMT activity (% of control), Brain: rat brain homogenate
# [6] = 0.5 h after administration by gastric tube
# [7] = 1 h after administration by gastric tube
# [8] = 3 h after administration by gastric tube
# [9] = 6 h after administration by gastric tube
# [10] = 9 h after administration by gastric tube
SMILES,"COMT activity, Liver (% of control) (COMT [1])","COMT activity, Brain (% of control) (COMT [2])","COMT activity, SK-N-SH (% of control) (COMT [3])",further results
"CC(=O)Oc1cc2c(c([N+](=O)[O-])c1OC(C)=O)C(=O)C(C)(C)CC2 [Compound 25, Acetic Acid, 3-Acetoxy-7,7-dimethyl-1-nitro-8-oxo-5,6,7,8-tetrahydro-naphthalen-2-yl Ester]",1.7 ± 0.1 % of control,19 ± 1 % of control,39 ± 1 % of control,
"COc1ccc(N2CCN(CCC(=O)c3ccc(O)c(O)c3[N+](=O)[O-])CC2)cc1 [Compound 37, 1-(3,4-Dihydroxy-2-nitro-phenyl)-3-[4-(4-methoxy-phenyl)-piperazin-1-yl]-propan-1-one]",1.7 ± 0.3 % of control,6 ± 0 % of control,6 ± 2 % of control,
"CCCC(=O)Oc1ccc(C(=O)CCCc2ccccc2)c([N+](=O)[O-])c1OC(C)=O [Compound 50, Acetic acid, 6-butyryloxy-2-nitro-3-(4-phenyl-butyryl)-phenyl ester]",0.6 ± 0.5 % of control,0 ± 0 % of control,2 ± 1 % of control,
"O=C1C(=Cc2ccc(O)c(O)c2)Cc2cc(O)c(O)c([N+](=O)[O-])c21 [Compound 12, 2-(3,4-dihydroxy-benzylidene)-5,6-dihydroxy-7-nitro-indan-1-one]",0.6 ± 0.0 % of control,18 ± 1 % of control,34 ± 1 % of control,
"CCCC(=O)Oc1ccc(C(=O)Cc2ccccc2)c([N+](=O)[O-])c1OC(=O)CCC [Compound 47, Butyric acid, 6-butyryloxy-2-nitro-3-phenylacetyl-phenyl ester]",0.6 ± 0.2 % of control,0 ± 0 % of control,1 ± 1 % of control,
"CC(=O)Oc1ccc(C(=O)Cc2ccccc2)c([N+](=O)[O-])c1OC(C)=O [Compound 45, Acetic acid, 6-acetoxy-2-nitro-3-phenylacetyl-phenyl ester]",0.7 ± 0.2 % of control,0 ± 0 % of control,7 ± 3 % of control,
"O=C(CCN1CCOCC1)c1ccc(O)c(O)c1[N+](=O)[O-] [Compound 26, 1-(3,4-dihydroxy-2-nitro-phenyl)-3-morpholin4-yl-propan-1-one]",0.9 ± 0.1 % of control,9 ± 0 % of control,12 ± 1 % of control,
"CN(C)c1ccc(C=C2Cc3cc(O)c(O)c([N+](=O)[O-])c3C2=O)cc1 [Compound 8, 2-(4-dimethylamino-benzylidene)-5,6-dihydroxy-7-nitro-indan-1-one]",1.0 ± 0.1 % of control,30 ± 4 % of control,48 ± 3 % of control,
"O=C(CN1CCOCC1)c1ccc(O)c(O)c1[N+](=O)[O-] [Compound 42, 1-(3,4-Dihydroxy-2-nitro-phenyl)-2-morpholin-4-yl-ethanone]",0.8 ± 0.2 % of control,13 ± 0 % of control,27 ± 1 % of control,
"COc1ccc(C=C2CCc3cc(O)c(O)c([N+](=O)[O-])c3C2=O)cc1OC [Compound 4, 2-(3,4-Dimethoxy-benzylidene)-6,7-dihydroxy-8-nitro-3,4-dihydro-2H-naphthalen-1-one]",2.0 ± 1.0 % of control,20 ± 2 % of control,25 ± 1 % of control,
"O=C(C=Cc1ccccc1)c1ccc(O)c(O)c1[N+](=O)[O-] [Compound 41, 1-(3,4-dihydroxy-2-nitro-phenyl)-3-phenyl-propenone]",1.1 ± 0.2 % of control,9 ± 1 % of control,5 ± 0 % of control,
"O=C(c1ccccc1)c1ccc(O)c(O)c1[N+](=O)[O-] [Compound 5, (3,4-Dihydroxy-2-nitro-phenyl)-phenyl-methanone]",0.3 ± 0.1 % of control,6 ± 1 % of control,2 ± 0 % of control,"COMT activity (% of control), Liver (COMT [4]; [6]): 2.1 ± 0.5 % of control; COMT activity (% of control), Liver (COMT [4]; [7]): 26.5 ± 1.3 % of control; COMT activity (% of control), Liver (COMT [4]; [8]): 52.1 ± 2.6 % of control; COMT activity (% of control), Liver (COMT [4]; [9]): 79.0 ± 14.8 % of control; COMT activity (% of control), Liver (COMT [4]; [10]): 108.9 % of control; COMT activity (% of control), Brain (COMT [5]; [6]): 12.2 ± 0.3 % of control; COMT activity (% of control), Brain (COMT [5]; [7]): 25.5 ± 1.8 % of control; COMT activity (% of control), Brain (COMT [5]; [8]): 52.2 ± 2.3 % of control; COMT activity (% of control), Brain (COMT [5]; [9]): 92.5 ± 7.9 % of control; COMT activity (% of control), Brain (COMT [5]; [10]): 102.3 % of control; inhibitory profile brain COMT versus liver COMT (in words) (COMT [5]; after oral administration, rat, brain compared with liver): much more potent as a peripheral COMT inhibitor than in brain; access to the brain / activity in the periphery (in words) (COMT [5]; conclusion from ex vivo COMT inhibition, rat): limited access to the brain"
"O=C(CCN1CCC(Cc2ccccc2)CC1)c1ccc(O)c(O)c1[N+](=O)[O-] [Compound 36, 3-(4-benzyl-piperidin-1-yl)-1-(3,4-Dihydroxy-2-nitro-phenyl)-propan-1-one]",2.2 ± 0.4 % of control,6 ± 0 % of control,9 ± 2 % of control,
"O=C(CCN1CCCC2CCCCC21)c1ccc(O)c(O)c1[N+](=O)[O-] (stereo not drawn) [Compound 34, 1-(3,4-Dihydroxy-2-nitro-phenyl)-3-(octahydro-quinolin-1-yl)-propan-1-one]",1.6 ± 0.2 % of control,5 ± 0 % of control,11 ± 2 % of control,
"O=C1c2c(cc(O)c(O)c2[N+](=O)[O-])CC1CN1CCOCC1 (stereo not drawn) [Compound 29, 5,6-Dihydroxy-2-morpholin-4-ylmethyl-7-nitro-indan-1-one]",0.6 ± 0.0 % of control,12 ± 1 % of control,21 ± 1 % of control,
"CCOC(=O)Oc1ccc(C(=O)CCc2ccccc2)c([N+](=O)[O-])c1OC(=O)OCC [Compound 22, Carbonic acid, 2-ethoxycarbonyloxy-3-nitro-4-(3-phenyl-propionyl)-phenyl ester ethyl ester]",0.3 ± 0.1 % of control,9 ± 0 % of control,12 ± 1 % of control,
"O=C1C(=Cc2ccc(O)c(O)c2)CCc2cc(O)c(O)c([N+](=O)[O-])c21 [Compound 13, 2-(3,4-Dihydroxy-benzylidene)-6,7-dihydroxy-8-nitro-3,4-dihydro-2H-naphthalen-1-one]",2.3 ± 0.1 % of control,27 ± 1 % of control,46 ± 1 % of control,
"CCOC(=O)Oc1ccc(C(=O)c2ccccc2)c([N+](=O)[O-])c1OC(=O)OCC [Compound 21, Carbonic acid, 4-benzoyl-2-ethoxycarbonyloxy-3-nitro-phenyl ester ethyl ester]",0.3 ± 0.2 % of control,11 ± 1 % of control,1 ± 1 % of control,
"O=C1CCc2cc(O)c(O)c([N+](=O)[O-])c21 [Compound 2, 5,6-Dihydroxy-7-nitro-indan-1-one]",1.3 ± 0.7 % of control,9 ± 1 % of control,24 ± 1 % of control,
"CC1CCN(CCC(=O)c2ccc(O)c(O)c2[N+](=O)[O-])CC1 [Compound 33, 1-(3,4-Dihydroxy-2-nitro-phenyl)-3-(4-methyl-piperidin-1-yl)-propan-1-one]",2.2 ± 0.3 % of control,6 ± 0 % of control,14 ± 0 % of control,
"O=C1c2c(cc(O)c(O)c2[N+](=O)[O-])CC1CN1CCN(c2cccc(C(F)(F)F)c2)CC1 (stereo not drawn) [Compound 43, 5,6-Dihydroxy-7-nitro-2-[4-(3-trifluoromethyl-phenyl)-piperazin-1-ylmethyl]-indan-1-one]",0.9 ± 0.2 % of control,10 ± 1 % of control,19 ± 7 % of control,
"CCCCC(=O)c1ccc(O)c(O)c1[N+](=O)[O-] [Compound 17, 1-(3,4-dihydroxy-2-nitro-phenyl)-pentan-1-one]",0.4 ± 0.0 % of control,8 ± 1 % of control,24 ± 4 % of control,
